Reference: patent US9023789B2, “Amylin analogs and pharmaceutical compositions thereof” (Novo Nordisk A/S, priority 2012, dated 2015)
Numbered stars: 1 amine (or outer) side, 2 acyl side, 3 side chain; on linkers, the order of the positions; unused ones are H or OH. Bridge positions count the residues as written; N and C are the ends. Side chains are listed from the residue outwards. Peptide text beside a SMILES is read from it. * marks the point of attachment. C20 diacid = O=C(O)CCCCCCCCCCCCCCCCCCC(=O)*; γGlu = O=C(O)[C@H](CCC(=O)[*:2])N[*:1]; AEEA = NCCOCCOCC(=O)O

Assays:
[1] = ASSAY (III) ThT fibrillation assay for physical stability; type: physicochemical
Procedure, shortened: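 Physical stability scored by ThT fluorescence (444 nm excitation, 485 nm emission) tracked every 20 min during 37 °C incubation with 960 rpm shaking, ThT at 1 μM final. Values are replicate means with SD at chosen times; HPLC against pramlintide standard gives initial and post-assay soluble concentrations.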

[2] = biological target: T1, human calcitonin receptor (Homo sapiens, UniProt P30988); assay: ASSAY (VII) binding to the human calcitonin receptor (SPA, 125I-Calcitonin); conditions: read-out: hCTR bind IC50;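 further: cell membranes (35 ng/µL) combined with SPA beads in 40 µL of pH 7.4 Hepes buffer, 384-well format, signal counted on a TopCounter instrument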
T1 construct: expressed in transfected cells
T1 sequence (P30988 25-474): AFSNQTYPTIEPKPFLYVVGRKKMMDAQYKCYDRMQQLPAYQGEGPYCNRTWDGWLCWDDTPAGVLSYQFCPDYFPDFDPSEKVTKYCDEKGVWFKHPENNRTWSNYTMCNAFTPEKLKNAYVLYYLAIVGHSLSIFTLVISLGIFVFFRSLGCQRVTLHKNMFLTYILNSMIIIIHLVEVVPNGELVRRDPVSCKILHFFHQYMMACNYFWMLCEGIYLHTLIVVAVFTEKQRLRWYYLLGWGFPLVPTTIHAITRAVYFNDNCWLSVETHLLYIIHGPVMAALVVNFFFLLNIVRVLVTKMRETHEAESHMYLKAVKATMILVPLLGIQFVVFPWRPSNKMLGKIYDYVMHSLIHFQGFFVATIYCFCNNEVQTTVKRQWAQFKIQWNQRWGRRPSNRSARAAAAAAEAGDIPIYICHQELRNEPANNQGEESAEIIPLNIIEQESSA

[3] = biological target: T2, human calcitonin (a) receptor in BHK570 cells (Homo sapiens, UniProt P30988); assay: ASSAY (II)a functional assay, human calcitonin receptor (CRE luciferase); type: cell-based; conditions: read-out: hCTR funct. EC50
T2 construct: expressed in transfected cells
T2 sequence (P30988 25-474): T1 sequence (P30988 25-474)
Procedure, shortened: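 Functional agonism was measured by CRE-luciferase reporter luminescence in BHK cells bearing calcitonin receptor, or calcitonin receptor plus RAMP-3 as the amylin 3(a) receptor. Stimulation lasted 3 hours at 37° C.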

[4] = biological target: T3, human amylin receptor (membranes from Amylin 3(a)/CRE-luc cells) (Homo sapiens, UniProt O60896+P30988); assay: ASSAY (V) binding to the human amylin receptor (SPA, 125I-rat amylin);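 further: competition binding of cell membranes (35 ng/µL) mixed with SPA beads in 384-well plates at 40 µL total volume, read by scintillation counting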
T3 construct: expressed in transfected cells
T3 sequence (P30988 25-474): T1 sequence (P30988 25-474)
T3 sequence (O60896 24-148 partner): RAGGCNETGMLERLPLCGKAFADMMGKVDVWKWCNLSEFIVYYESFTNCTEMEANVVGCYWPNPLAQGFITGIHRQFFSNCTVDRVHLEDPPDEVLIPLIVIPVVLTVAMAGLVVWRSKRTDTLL

[5] = Table 5, selectivity, hCTR bind IC50 / hAmylin-R bind IC50
[6] = Table 5a, selectivity, hCTR bind IC50 / hAmylin-R bind IC50
[7] = Table 5b, selectivity, hCTR bind IC50 / hAmylin-R bind IC50
[8] = Table 5c, selectivity, hCTR bind IC50 / hAmylin-R bind IC50
[9] = Table 7, human binding selectivity, included for comparison
[10] = Table 7a (preferred compounds), human binding selectivity, included for comparison
[11] = ratio of human calcitonin receptor binding IC50 to human amylin receptor binding IC50

ThT pH 4.0 lag time (h) [1] [h] | IC50 [2] [nM] | EC50 [3] [nM] | IC50 ([4]; Table 4, read-out: hAmylin-R bind IC50) [nM] | Ratio hCT/hAmylin binding [4, 5] | Ratio hCT/hAmylin binding [4, 6] | Ratio hCT/hAmylin binding [4, 7] | Ratio hCT/hAmylin binding [4, 8] | Ratio hCT/hAmylin binding [4, 9] | Ratio hCT/hAmylin binding [4, 10] | Ratio hCT/hAmylin binding [4, 11] | SMILES
25 | 60.9 | 9.07 | 0.666 | 91.4 | 91.4 | 91.4 | 91.4 | 91.4 | 91.4 | 91.4 | CC[C@H](C)[C@H](NC(=O)[C@H](C)NC(=O)CNC(=O)[C@H](Cc1ccccc1)NC(=O)[C@H](CC(N)=O)NC(=O)[C@@H]1CCCN1C(=O)[C@H](CO)NC(=O)[C@H](CO)NC(=O)[C@H](Cc1c[nH]cn1)NC(=O)[C@H](CCCNC(=N)N)NC(=O)[C@H](CC(C)C)NC(=O)[C@H](Cc1ccccc1)NC(=O)[C@@H](NC(=O)[C@H](C)NC(=O)[C@H](CC(C)C)NC(=O)[C@H](CCCNC(=N)N)NC(=O)[C@H](CCC(N)=O)NC(=O)[C@@H](NC(=O)[C@H](C)NC(=O)[C@@H]1CSSC[C@H](NC(=O)[C@@H](N)CCCCNC(=O)COCCOCCNC(=O)CC[C@H](NC(=O)CCCCCCCCCCCCCCCCCCC(=O)O)C(=O)O)C(=O)N[C@@H](CC(N)=O)C(=O)N[C@@H]([C@@H](C)O)C(=O)N[C@@H](C)C(=O)N[C@@H]([C@@H](C)O)C(=O)N1)[C@@H](C)O)[C@@H](C)O)C(=O)N1CCC[C@H]1C(=O)N[C@@H](CO)C(=O)N[C@@H](CO)C(=O)N[C@H](C(=O)N1CCC[C@H]1C(=O)N[C@H](C(=O)NCC(=O)N[C@@H](CO)C(=O)N[C@@H](CC(N)=O)C(=O)N[C@H](C(=O)N[C@@H](Cc1ccc(O)cc1)C(N)=O)[C@@H](C)O)C(C)C)[C@@H](C)O [Example 75] (H-K([AEEA-γGlu-C20 diacid])CNTATCATQRLATFLRHSSPNFGAIPSSTPVGSNTY-NH2; disulfide 2-7 (inferred); N-terminus assumed)
10 | – | 0.236 | – | 42.2 | 42.2 | 42.2 | 42.2 | 42.2 | 42.2 | 42.2 | CC[C@H](C)[C@H](NC(=O)[C@H](C)NC(=O)CNC(=O)[C@H](Cc1ccccc1)NC(=O)[C@H](CC(N)=O)NC(=O)[C@@H]1CCCN1C(=O)[C@H](CO)NC(=O)[C@H](CO)NC(=O)[C@H](Cc1c[nH]cn1)NC(=O)[C@H](CCCNC(=N)N)NC(=O)[C@H](CC(C)C)NC(=O)[C@H](Cc1ccccc1)NC(=O)[C@H](Cc1c[nH]cn1)NC(=O)[C@H](C)NC(=O)[C@H](CC(C)C)NC(=O)[C@H](CCCNC(=N)N)NC(=O)[C@H](CCC(N)=O)NC(=O)[C@@H](NC(=O)[C@H](C)NC(=O)[C@@H]1CSSC[C@H](NC(=O)[C@@H](N)CCCCNC(=O)COCCOCCNC(=O)CCCCCCCCCCCCCCCCCCC(=O)O)C(=O)N[C@@H](CC(N)=O)C(=O)N[C@@H]([C@@H](C)O)C(=O)N[C@@H](C)C(=O)N[C@@H]([C@@H](C)O)C(=O)N1)[C@@H](C)O)C(=O)N1CCC[C@H]1C(=O)N[C@@H](CO)C(=O)N[C@@H](CO)C(=O)N[C@H](C(=O)N[C@@H](CC(N)=O)C(=O)N[C@H](C(=O)NCC(=O)N[C@@H](CO)C(=O)N[C@@H](CC(N)=O)C(=O)N[C@H](C(=O)N[C@@H](Cc1ccc(O)cc1)C(N)=O)[C@@H](C)O)C(C)C)[C@@H](C)O [Example 90]
17 | – | – | – | 100.4 | 100.4 | 100.4 | 100.4 | 100.4 | 100.4 | 100.4 | CC[C@H](C)[C@H](NC(=O)[C@H](C)NC(=O)CNC(=O)[C@H](Cc1ccccc1)NC(=O)[C@H](CC(N)=O)NC(=O)[C@@H]1CCCN1C(=O)[C@H](CO)NC(=O)[C@H](CO)NC(=O)[C@H](Cc1c[nH]cn1)NC(=O)[C@H](CCCNC(=N)N)NC(=O)[C@H](CC(C)C)NC(=O)[C@H](Cc1ccccc1)NC(=O)[C@H](Cc1c[nH]cn1)NC(=O)[C@H](C)NC(=O)[C@H](CC(C)C)NC(=O)[C@H](CCCNC(=N)N)NC(=O)[C@H](CCC(N)=O)NC(=O)[C@@H](NC(=O)[C@H](C)NC(=O)[C@@H]1CSSC[C@H](NC(=O)[C@H](CCCNC(=N)N)NC(=O)CNC(=O)CC[C@H](NC(=O)CCCCCCCCCCCCCCCCCCC(=O)O)C(=O)O)C(=O)N[C@@H](CC(N)=O)C(=O)N[C@@H]([C@@H](C)O)C(=O)N[C@@H](C)C(=O)N[C@@H]([C@@H](C)O)C(=O)N1)[C@@H](C)O)C(=O)N1CCC[C@H]1C(=O)N[C@@H](CO)C(=O)N[C@@H](CO)C(=O)N[C@H](C(=O)N[C@@H](CC(N)=O)C(=O)N[C@H](C(=O)NCC(=O)N[C@@H](CO)C(=O)N[C@@H](CC(N)=O)C(=O)N[C@H](C(=O)N[C@@H](Cc1ccc(O)cc1)C(N)=O)[C@@H](C)O)C(C)C)[C@@H](C)O [Example 99] ({C20 diacid-γGlu}-GRCNTATCATQRLAHFLRHSSPNFGAIPSSTNVGSNTY-NH2; disulfide 3-8)
11 | – | – | – | 32.0 | 32.0 | 32.0 | 32.0 | 32.0 | 32.0 | 32.0 | CC[C@H](C)[C@H](NC(=O)[C@H](C)NC(=O)CNC(=O)[C@H](Cc1ccccc1)NC(=O)[C@H](CC(N)=O)NC(=O)[C@@H]1CCCN1C(=O)[C@H](CO)NC(=O)[C@H](CO)NC(=O)[C@H](Cc1c[nH]cn1)NC(=O)[C@H](CCCNC(=N)N)NC(=O)[C@H](CC(C)C)NC(=O)[C@H](Cc1ccccc1)NC(=O)CNC(=O)[C@H](C)NC(=O)[C@H](CC(C)C)NC(=O)[C@H](CCCNC(=N)N)NC(=O)[C@H](CCC(N)=O)NC(=O)[C@@H](NC(=O)[C@H](C)NC(=O)[C@@H]1CSSC[C@H](NC(=O)[C@@H](N)CCCCNC(=O)COCCOCCNC(=O)CC[C@H](NC(=O)CCCCCCCCCCCCCCCCCCC(=O)O)C(=O)O)C(=O)N[C@@H](CC(N)=O)C(=O)N[C@@H]([C@@H](C)O)C(=O)N[C@@H](C)C(=O)N[C@@H]([C@@H](C)O)C(=O)N1)[C@@H](C)O)C(=O)N1CCC[C@H]1C(=O)N[C@@H](CO)C(=O)N[C@@H](CO)C(=O)N[C@H](C(=O)N1CCC[C@H]1C(=O)N[C@H](C(=O)NCC(=O)N[C@@H](CO)C(=O)N[C@@H](CC(N)=O)C(=O)N[C@H](C(=O)N[C@@H](Cc1ccc(O)cc1)C(N)=O)[C@@H](C)O)C(C)C)[C@@H](C)O [Example 71] (H-K([AEEA-γGlu-C20 diacid])CNTATCATQRLAGFLRHSSPNFGAIPSSTPVGSNTY-NH2; disulfide 2-7)
12 | – | – | – | 79.6 | 79.6 | 79.6 | 79.6 | 79.6 | 79.6 | 79.6 | CC[C@H](C)[C@H](NC(=O)[C@H](C)NC(=O)CNC(=O)[C@H](Cc1ccccc1)NC(=O)[C@H](CC(N)=O)NC(=O)[C@@H]1CCCN1C(=O)[C@H](CO)NC(=O)[C@H](CO)NC(=O)[C@H](Cc1c[nH]cn1)NC(=O)[C@H](CCCNC(=N)N)NC(=O)[C@H](CC(C)C)NC(=O)[C@H](Cc1ccccc1)NC(=O)[C@H](CC(N)=O)NC(=O)[C@H](C)NC(=O)[C@H](CC(C)C)NC(=O)[C@H](CCCNC(=N)N)NC(=O)[C@H](CCC(N)=O)NC(=O)[C@@H](NC(=O)[C@H](C)NC(=O)[C@@H]1CSSC[C@H](NC(=O)[C@@H](N)CCCCNC(=O)COCCOCCNC(=O)COCCOCCNC(=O)CC[C@H](NC(=O)CCCCCCCCCCCCCCCCCCC(=O)O)C(=O)O)C(=O)N[C@@H](CC(N)=O)C(=O)N[C@@H]([C@@H](C)O)C(=O)N[C@@H](C)C(=O)N[C@@H]([C@@H](C)O)C(=O)N1)[C@@H](C)O)C(=O)N1CCC[C@H]1C(=O)N[C@@H](CO)C(=O)N[C@@H](CO)C(=O)N[C@H](C(=O)N1CCC[C@H]1C(=O)N[C@H](C(=O)NCC(=O)N[C@@H](CO)C(=O)N[C@@H](CC(N)=O)C(=O)N[C@H](C(=O)N[C@@H](Cc1ccc(O)cc1)C(N)=O)[C@@H](C)O)C(C)C)[C@@H](C)O [Example 96]
